Consider one compound from US6509337B1, “Arylsulfonyl Hydroxamic Acid derivatives as MMP and TNF inhibitors” (Pfizer Inc., priority 1997, dated 2003).

The term melting point denotes the temperature of the solid-liquid transition. With `COc1ccc(S(=O)(=O)N2CC=CC(c3ccccc3)C2C(=O)NO)cc1` (stereo not shown) [Example 2, N-hydroxy-1-(4-methoxybenzenesulfonyl)-3-phenyl-1,2,3,6-tetrahydropyridine-2-carboxamide], the melting point is 151 to 154 °C (dec.).
